Values joined by “and” are separate entries in the source; they are usually repeats but may differ in a detail not shown here. Identical values can stand only once.

The values below come from patent US20020025942A1, “NOVEL TAU/NEUROFILAMENT PROTEIN KINASES” (priority 1991, published 2002).

Type in all cases: biochemical, bovine
One experiment deals with T1, PK40 (Bos taurus, UniProt P46196).
T1 construct: from tissue; host or cells: bovine brain
Briefly: 32P kinase assay of purified PK40 with dephosphorylated NF-M as second substrate. The method, then:
(§1) An alternative method for assaying the phosphorylating activity of the kinases was by ^32P assays. Radioactive assays in the same buffer system as for immunoassays contained 5 μg of HTP-purified native NF-triplet as substrate (3μg of substrate proteins other than NFs) and 150-250 cpm/pmole gamma-^32P-ATP. Incubation'times were 15 minutes at 37° C. for activities up to about 1 pmole/min/assay, since the assay responses were linear within these time intervals. Assays were stopped by cooling on ice, addition of 20 μl 25 mM EDTA and immediate transfer of the mixture onto glass filters (Whatman GF/A) wetted with 10% TCA/2% sodium pyrophosphate (PPA). The glass filters were washed twice for 1 hour and once for at least 3 hours in 10% TCA/2% PPA and finally in ethanol and were air-dried. Radioactivity was assessed by scintillation counting (Beckman LS 230) with 5 ml “Liquiscint” (National Diagnostics) for 20 minutes. Assays were routinely carried out in triplicate except for some duplicate assays in a few explicitly mentioned cases; a control assay lacking NFs was subtracted from the mean value.
(§2) The ATP dependence and inhibition of the activities of PK40 and PK36 were determined at 2 mM Mg^2+ with soluble dephosphorylated NF-M as second substrate to avoid uncertainties arising from the aggregation state of NF-triplet in suspension. The optima were at 0.5-1 mM ATP for both kinases. Apparent Km values for ATP of both kinases were estimated from Woolf-Hanes plots (Dixon and Webb, 1979) for a range of ATP concentrations sufficiently below the onset of inhibition. […] The apparent Km of PK36 was approximately 50 μM.

The subject of another experiment is PK36. Briefly: 32P kinase assay of purified PK36 with dephosphorylated NF-M as second substrate. On the procedure: as §1, §2
In experiment [1] the test system is KSP-phosphorylating kinases. Briefly: Immuno-dotblot assay (SMI-31/SMI-34 epitope reconstitution on dephosphorylated NF-triplet) with crude 35-45% ammonium sulfate fraction. Conditions: crude enzyme. The method, then:
The preferred method for the immunoassay for detecting KSP-phosphorylating kinases is as follows. […] After incubation at 37° C. for 18 hours, assays were diluted to 100 μl with 10 mM PBS, pH 7.2, and aliquots of 50 μl were spotted on nitrocellulose (0.22 μm, Schleicher and Schull). […] Blots were incubated with SMI mAbs for at least 2 hours. The blots were then washed five times. […] All incubations and washes were at room temperature. Incubations were sealed in plastic bags with 50 μl of solution/cm membrane. The foregoing procedure involved parameters that were optimized as follows. […] This activity was NF-specific, since the corresponding control immunoassay which lacked dephosphorylated native NF-triplet was almost negative for this fraction. […] The assays were performed with 0.5 mM Mg^2+ (unless indicated otherwise). […] Immuno-dotblot-assays were conducted to determine the optimal Mg^2+ and ATP concentrations using the SMI-31 and SMI-34 antibodies. […] Control assays were without NFs using 0.4 micrograms crude enzyme.

Setting [2] is: 2 mM Mg2+, 5 mM ATP, % of control (2 mM Mg2+, 1 mM ATP).
Setting [3] is: ATP in relatively small excess over Mg2+.
Setting [4] is: 5 mM Mg2+ over 1 mM ATP or 5 mM over 5 mM ATP.
The mark [5] stands for this setting: 5 mM Mg2+, 1 mM ATP, % of control.
The mark [6] stands for this setting: 5 mM Mg2+, 5 mM ATP, % of control.

T1 sequence (P46196 2-360 limits assumed): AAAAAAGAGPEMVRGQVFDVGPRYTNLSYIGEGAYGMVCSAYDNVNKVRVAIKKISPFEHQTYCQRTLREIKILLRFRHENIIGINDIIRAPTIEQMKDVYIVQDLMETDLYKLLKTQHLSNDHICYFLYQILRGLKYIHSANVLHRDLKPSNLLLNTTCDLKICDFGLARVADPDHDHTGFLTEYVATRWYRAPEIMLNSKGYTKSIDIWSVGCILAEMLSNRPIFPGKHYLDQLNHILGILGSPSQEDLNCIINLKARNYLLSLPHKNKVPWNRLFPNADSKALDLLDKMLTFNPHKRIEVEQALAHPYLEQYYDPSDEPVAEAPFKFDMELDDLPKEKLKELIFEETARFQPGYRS

Take `Nc1ncnc2c1ncn2[C@@H]1O[C@H](COP(=O)(O)OP(=O)(O)OP(=O)(O)O)[C@@H](O)[C@H]1O` [ATP]: the “ATP optimum of PK40 activity” value at PK40 (2 mM Mg2+) was 0.5 to 1 mM. Besides, the “relative activity [%] of PK40” value on PK40 (setting [2]) is 7% and 7.2 ± 6.9%. Besides, the Michaelis-Menten constant (Km) was 93 ± 12 µM on PK40 (2 mM Mg2+, Woolf-Hanes plots, mean ±S.D. of three determinations, read-out: apparent Km for ATP of PK40) and approximately 50 µM with PK36 (2 mM Mg2+, Woolf-Hanes plots, read-out: apparent Km for ATP of PK36). Moreover, at PK40 (setting [3]), the “inhibition of PK40 by excess ATP” value was “strongly inhibited”. Moreover, the “ATP optimum of PK36 activity” value in the experiment on PK36 (2 mM Mg2+) was 0.5 to 1 mM. The “relative activity [%] of PK36” value in the experiment on PK36 (setting [2]) was 14% and 14 ± 0.5%. The “inhibition of PK36 by excess ATP” value with PK36 (setting [3]) was “strongly inhibited”. Besides, the “effect on kinase activity” value in experiment [1] (ATP 5 mM) was “inhibited the kinase activity”.
For the molecule `Nc1nc2c(ncn2[C@@H]2O[C@H](COP(=O)(O)OP(=O)(O)OP(=O)(O)O)[C@@H](O)[C@H]2O)c(=O)[nH]1` [GTP], the “ability to substitute for ATP” value in experiment [1] is reported as “could not substitute for ATP”.
As to `[Mg+2]` [Mg^2, magnesium], the “inhibition of PK40 with excess Mg2+” value on PK40 (setting [4]) was “little or no inhibition”. Besides, the “relative activity [%] of PK40” value stood at 107 ± 3.5% on PK40 (setting [5]) and 78 ± 7.1% on PK40 (setting [6]). Also, the “inhibition of PK36 with excess Mg2+” value with PK36 (setting [4]) is reported as “significantly reduced”. Further, the “relative activity [%] of PK36” value in the experiment with PK36 (setting [5]) was 40 ± 0.2%; with PK36 (setting [6]) it was 38 ± 2.2%.
As to `[Mn+2]` [Mn^2+], the “effectiveness relative to Mg2+” value in experiment [1] is on record as “about twice as effective as Mg^2+”.
In the case of `[Cl-].[Na+]` [NaCl, sodium chloride], on PK40 (NaCl 150 mM, % of control), the “relative activity [%] of PK40” value came to 27 ± 1.8%. For the same molecule, in the experiment with PK36 (NaCl 150 mM, % of control), the “relative activity [%] of PK36” value amounted to 40 ± 0.8%. The “concentration that diminished the assay response” value in experiment [1] (attributed to ionic strength) is listed as “greater than 20 mM”.

For orientation: Km means the substrate concentration at which the rate is half of its maximum.
